Results reported in patent US9682957B2 (Theravance Respiratory Company, LLC, priority 2009, dated 2017).
Where a name gives a salt, the structure may show the parent alone.

system: MCh-induced bronchoconstriction; assay: Einthoven assay: bronchoprotection against methacholine (MCh)-induced bronchoconstriction; assay type: in vivo; settings: rat, 100 μg by inhalation, 24 h after administration
Method: This assay measures the ability of a test compound to provide bronchoprotection against methacholine (MCh)-induced bronchoconstriction in a rat. Male Sprague-Dawley rats (Harlan, Indianapolis, Ind.), weighing between 200 g and 350 g, were used for all studies. Test compound or vehicle (sterile deionized water) were dosed by inhalation (IH) over a 10 min period in a pie shaped inhalation chamber (R+S Molds, San Carlos, Calif.) using 5 mL of dosing solution. […] Rats were dosed with 100 μg of test compound unless otherwise indicated. At predetermined time points, rats were anesthetized with an intraperitoneal (IP) injection of 120 mg/kg inactin (thiobutabarbital). A supplemental dose (40 mg/kg, IP) was administered if the animal responded to physical stimuli (e.g. toe pinch). The surgical site was shaved and a 1-2 cm midline incision of the ventral aspect of the neck was made. The jugular vein was isolated and cannulated with a saline-filled polyethylene catheter (PE-50) to allow IV infusion of MCh. Trachea was dissected free and cannulated with a 14G needle (#NE-014, Small Parts, Miami Lakes, Fla.). After placement of the tracheal cannula, each rat was ventilated using a respirator (Model 683, Harvard Apparatus, Inc., MA) set at a stroke volume of 1 mL/100 g body weight (but not exceeding 2.5 mL volume) and a rate of 90 strokes per minute. A T-connector was placed along the respirator expiratory tubing to allow for measurement of changes in ventilation pressure (VP) using a Biopac transducer that was connected to a Biopac […]) pre-amplifier. Body temperature was maintained at 37° C. using a heating pad. Changes in VP were recorded using the Acknowledge Data Collection Software (Santa Barbara, Calif.). Baseline values were collected for at least 2.5 min. Rats were then challenged with non-cumulative intravenous (IV) infusions of 40 and 80 μg/kg MCh. MCh was infused intravenously for 2.5 minutes from a syringe pump (sp210iw, World Precision Instruments, Inc., Sarasota, Fla.) at a rate of 2 mL/kg/min, with a 2 minute interval between the two doses of MCh. Changes in ventilation pressure (cm H2O) in treated animals are expressed as % inhibition of MCh response relative to control animals. Other bronchoconstrictors, such as histamine and acetylcholine, can be used in place of MCh in this assay. Additionally, guinea pigs can be used instead of rats. […] Inhibition greater than or equal to 30 percent at 24 h is indicative of a long duration of action.

Structure (SMILES) | Broncho. at 24 h
CN(CCCC(=O)Nc1cccc(CCNC[C@H](O)c2ccc(O)c3[nH]c(=O)ccc23)c1)C(=O)CCN1CCC(OC(=O)Nc2ccccc2-c2ccccc2)CC1 [Compound I-7, Biphenyl-2-ylcarbamic Acid 1-(2-{[3-(3-{2-[(R)-2-Hydroxy-2-(8-hydroxy-2-oxo-1,2-dihydroquinolin-5-yl)ethylamino]ethyl}phenylcarbamoyl)-propyl]methylcarbamoyl}ethyl)piperidin-4-yl Ester Ditrifluoroacetic Acid Salt] | Yes (Bronchoprotective effect present at 24 h, e.g., ≧30 % inhibition of the MCh response at 24 h in the rat Einthoven assay (100 μg))
C[C@@H](Cc1cccc(CC(=O)NCCCN(C)C(=O)CCN2CCC(OC(=O)Nc3ccccc3-c3ccccc3)CC2)c1)NC[C@H](O)c1ccc(O)c2[nH]c(=O)ccc12 [Compound I-13, Biphenyl-2-ylcarbamic Acid 1-[2-({3-[2-(3-{(S)-2-[(R)-2-Hydroxy-2-(8-hydroxy-2-oxo-1,2-dihydroquinolin-5-yl)ethylamino]propyl}phenyl)acetylamino]-propyl}methylcarbamoyl)ethyl]piperidin-4-yl Ester Ditrifluoroacetic Acid Salt] | Yes (Bronchoprotective effect present at 24 h, e.g., ≧30 % inhibition of the MCh response at 24 h in the rat Einthoven assay (100 μg))
CN(CCCCC(=O)Nc1ccc(CNC[C@H](O)c2ccc(O)c3[nH]c(=O)ccc23)cc1)C(=O)CCN1CCC(OC(=O)Nc2ccccc2-c2ccccc2)CC1 [Compound I-14, Biphenyl-2-ylcarbamic Acid 1-(2-{[4-(4-{[(R)-2-hydroxy-2-(8-hydroxy-2-oxo-1,2-dihydroquinolin-5-yl)ethylamino]methyl}phenylcarbamoyl)-butyl]methylcarbamoyl}ethyl)piperidin-4-yl Ester Ditrifluoroacetic Acid Salt] | Yes (Bronchoprotective effect present at 24 h, e.g., ≧30 % inhibition of the MCh response at 24 h in the rat Einthoven assay (100 μg))
Cc1cc(NC(=O)CCCCN(C)C(=O)CCN2CCC(OC(=O)Nc3ccccc3-c3ccccc3)CC2)c(C)cc1CNC[C@H](O)c1ccc(O)c2[nH]c(=O)ccc12 [Compound I-18, Biphenyl-2-ylcarbamic Acid 1-(2-{[4-(4-{[(R)-2-Hydroxy-2-(8-hydroxy-2-oxo-1,2-dihydroquinolin-5-yl)ethylamino]methyl}-2,5-dimethylphenylcarbamoyl)butyl]methylcarbamoyl}ethyl)piperidin-4-yl Ester Ditrifluoroacetic Acid Salt] | Yes (Bronchoprotective effect present at 24 h, e.g., ≧30 % inhibition of the MCh response at 24 h in the rat Einthoven assay (100 μg))
CN(C(=O)CCN1CCC(OC(=O)Nc2ccccc2-c2ccccc2)CC1)c1cccc(C(=O)Nc2ccc(CCNC[C@H](O)c3ccc(O)c4[nH]c(=O)ccc34)cc2)c1 [Compound I-34, Ditrifluoroacetate] | Yes (Bronchoprotective effect present at 24 h, e.g., ≧30 % inhibition of the MCh response at 24 h in the rat Einthoven assay (100 μg))
Cc1ccc(C(=O)Nc2ccc(CCNC[C@H](O)c3ccc(O)c4[nH]c(=O)ccc34)cc2)cc1N(C)C(=O)CCN1CCC(OC(=O)Nc2ccccc2-c2ccccc2)CC1 [Compound I-35] | Yes (Bronchoprotective effect present at 24 h, e.g., ≧30 % inhibition of the MCh response at 24 h in the rat Einthoven assay (100 μg))
CC(Cc1cccc(CCNC(=O)Cc2ccc(N(C)C(=O)CCN3CCC(OC(=O)Nc4ccccc4-c4ccccc4)CC3)cc2)c1)NC[C@H](O)c1ccc(O)c2[nH]c(=O)ccc12 (some centres unmarked) [Compound I-85, ditrifluoroacetic acid salt] | Yes (Bronchoprotective effect present at 24 h, e.g., ≧30 % inhibition of the MCh response at 24 h in the rat Einthoven assay (100 μg))

same assay, conditions: rat, 100 μg by inhalation, 24 h after administration; ditrifluoroacetic acid salt

Structure (SMILES) | Broncho. at 24 h
CC(Cc1ccc(CNC(=O)Cc2ccc(N(C)C(=O)CCN3CCC(OC(=O)Nc4ccccc4-c4ccccc4)CC3)cc2)cc1)NC[C@H](O)c1ccc(O)c2[nH]c(=O)ccc12 (stereo partly drawn) [Compound I-66, Biphenyl-2-ylcarbamic acid 1-[2-({4-[(4-{2-[(R)-2-hydroxy-2-(8-hydroxy-2-oxo-1,2-dihydroquinolin-5-yl)-ethylamino]propyl}benzylcarbamoyl)methyl]phenyl}-methylcarbamoyl)ethyl]piperidin-4-yl ester ditrifluoroacetic acid salt] | No
